Converted amounts (≈) assume the structure as drawn. Read-outs that look alike come from different tables or passages of the source.
How the values were obtained:
[1] = cited from earlier work
[2] = Cytotoxicity on growing MRC-5 cells (MTS); type: cell-based, human; settings: human, mrc-5 cells; Table 4; 50% inhibition of logphase growing cells; read-out: TC50 Growing MRC-5
Experimental: (§1) Cell Culture. Vero (African Green Monkey kidney cells) and MRC-5 (diploid Human Embryonic Lung fibroblasts) cells were obtained from the American Type Culture Collection (ATCC) and were grown in minimal essential medium (MEM) with Earl's salts and glutamine (GIBCO BRL, Life Technologies, Inc.) with 10% heat inactivated fetal bovine serum (GIBCO BRL) and penicillin (100 μg/mL)/streptomycin (100 μg/mL).
(§2) Cytotoxicity Analysis. The cytotoxicity of the compound was assayed using few the CellTiter 96™ Aqueous Non-Radioactive Cell Proliferation (MTS) Assay (Promega). Briefly, viable cell number was determined by trypan blue staining and cells (MRC-5 and Vero) were resuspended in minimal essential medium (MEM) supplemented with 10% FBS (GIBCO). Eighty microliters of cell suspension (1.7×10^4 cells/well) was dispensed onto a 96-well microtiter plates. At this time 20 μL of drug (or control) was added to appropriate wells. Each concentration was assayed in quadruplicate. The plates were incubated at 37° C. in a humidified 5% CO2 atmosphere for 4 days and MTS assay was performed according to the manufacturer's instructions. The average absorbence of the sample was graphed for each concentration and the data obtained was used to calculate TC50 (the concentration necessary to give one-half maximum growth) for each compound.

normal cells = settings: relative to antiviral concentrations; cited from earlier work
[3] = Cytotoxicity on static Vero cells; type: cell-based; settings: african green monkey, Table 4, 50% cell death (static cells), read-out: TC50 Static Vero
Experimental: as §1, §2

[4] = Cytotoxicity on static MRC-5 cells; type: cell-based; settings: human, Table 4, 50% cell death (static cells), read-out: TC50 Static MRC-5
Experimental: as §1, §2

HCMV (Town strain) = assay: HCMV plaque reduction (CPE) assay in MRC-5 cells; type: cell-based, human cytomegalovirus; settings: Human betaherpesvirus 5, MRC5; Table 4; read-out: IC50 HCMV
Experimental: The adenine analog phosphazole (compound T70241) was assayed for antiviral activity using a HCMV plaque reduction assay, in accordance with known methods such as that described in U.S. Pat. No. 5,446,045.
as §1
CMV Cytopathic Effect (CPE) Assay. Assays were performed essentially as described by Lewis et al. (111), which report is incorporated herein by reference. MRC-5 cells (100,000 cells/well) were seeded in 24-well plates overnight. Medium was then removed and wells were rinsed once with 250 μL of 2% FCS-MEM before adding 40-50 pfu of HCMV (Town strain) to each well. After 2 hours of virus adsorption, the medium was removed and the cells were rinsed once with 2% FCS-MEM. Varying concentrations of the phosphazole compound in the culture medium (1 mL) was then added to appropriate wells and plates were incubated for 5-6 days at 37° C. in a humidified 5% CO2 atmosphere. Each concentration was tested in duplicate wells.
The extent of the plaque reduction was quantitated by removing the media and adding 200 μL of 0.1% crystal violet in 20% methanol to all wells. The crystal violet was then removed after 10 min staining at room temperature by rinsing in the sink with tap water and the plates dried overnight. The plaques were then counted using a Nikon inverted microscope.

herpesviruses = settings: cited from earlier work
[5] = Cytotoxicity on growing Vero cells (MTS); type: cell-based; settings: african green monkey, Table 4, 50% inhibition of logphase growing cells, read-out: TC50 Growing Vero
Experimental: as §1, §2

[6] = system: bone marrow progenitor cells; settings: cited from earlier work
[7] = system: human B-lymphoblast (Raji) cells; settings: in culture; cited from earlier work
[8] = system: human T-lymphoblast (Molt-4F) cells; settings: in culture; cited from earlier work
vaccinia virus = settings: in culture; cited from earlier work
coxsackie B4 virus = settings: in culture; cited from earlier work
[9] = system: murine mammary carcinoma (FM3) cells; settings: in culture; cited from earlier work
[10] = system: murine leukemia (L1210) cells; settings: in culture; cited from earlier work
[11] = system: vesicular stomatitis virus; settings: in culture; cited from earlier work

Row | SMILES | clinical toxicity ([1]; human, in vivo) | CC50 at 96 h [2] [µg/mL] | concentration needed to inhibit growth of normal cells (normal cells) | CC50 at 96 h [3] [µg/mL] | CC50 at 96 h [4] [µg/mL] | IC50 (HCMV (Town strain)) [µg/mL] | activity against herpesviruses (herpesviruses) | CC50 at 96 h [5] [µg/mL] | toxicity to bone marrow progenitor cells [6] | inhibition of proliferation of Raji [7] | inhibition of proliferation of Molt-4F [8] | activity against vaccinia virus (vaccinia virus) | activity against coxsackie B4 virus (coxsackie B4 virus) | inhibition of proliferation of FM3 [9] | inhibition of proliferation of L1210 [10] | activity against vesicular stomatitis virus [11] | clinical toxicity ([1]; patients)
1 | Nc1nc(O)c2ncn(COC(CO)CO)c2n1 [DHPG, ganciclovir, reference compound] | most clinical toxicity is myelosuppression | > 250 | much higher concentrations are needed to inhibit cell growth of normal cells | > 250 | > 250 | 3.5 (≈ 13.7 µM) | potent inhibitor of most human and animal herpes viruses in culture | > 250 | toxic to bone marrow progenitor cells in culture | – | – | – | – | – | – | – | –
2 | CCOP(=O)(OCC)c1nc2c(Cl)ncnc2n1[C@@H]1O[C@H](CO)[C@@H](O)[C@H]1O [compound 1, Diethyl 6-chloro-9-(β-D-ribofuranosyl)purine-8-phosphate] | – | – | – | – | – | – | – | – | – | inhibitory | inhibitory | significant activity | significant activity | inhibitory | inhibitory | significant activity | –
3 | O=C(O)P(=O)(O)O [foscarnet] | – | – | – | – | – | – | observed activity against all known human herpesviruses | – | – | – | – | – | – | – | – | – | nephrotoxicity, hypocalcemia, and seizures in some patients
